The values below come from patent publication US8476264B2, “N-(3-(2-amino-6,6-difluoro-4,4A,5,6,7,7A-hexahydro-cyclopenta[E][1,3]oxazin-4-yl)-phenylamides as BACE1 inhibitors” (Hoffmann-La Roche Inc., priority 2011, dated 2013).

As usually defined, the IC50 is the midpoint of a concentration-inhibition curve.

In data set [1] the target is T1, recombinant human cathepsin E (Homo sapiens, UniProt P14091).
T1 construct: purchased R&D Systems
T1 sequence (P14091 54-396): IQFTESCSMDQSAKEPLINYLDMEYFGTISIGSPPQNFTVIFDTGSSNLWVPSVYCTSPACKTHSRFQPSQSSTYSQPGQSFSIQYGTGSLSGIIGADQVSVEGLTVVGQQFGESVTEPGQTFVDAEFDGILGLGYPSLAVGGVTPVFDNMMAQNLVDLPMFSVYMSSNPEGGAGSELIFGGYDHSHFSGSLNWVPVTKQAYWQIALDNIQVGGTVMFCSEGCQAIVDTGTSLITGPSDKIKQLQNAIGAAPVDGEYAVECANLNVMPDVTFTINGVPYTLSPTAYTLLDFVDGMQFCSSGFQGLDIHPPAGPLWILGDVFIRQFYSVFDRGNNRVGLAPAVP
Kind of data set: Cathepsin E fluorescent substrate kinetic assay. To be noted: pH 4.5, substrate MR121-[…]. In kind it is biochemical. An excerpt:
Cathepsin D and Cathepsin E Fluorescent Substrate Kinetic Assays
The MR121 fluorescence assays described below are based on the fact that MR121 forms a non-fluorescent ground state complex with tryptophan. In solution this formation occurs at millimolar concentrations of tryptophan. The mechanism can be used to design a generic biochemical assay for proteases. A substrate peptide is labeled at the N-terminus with tryptophan and at the C-terminus with the fluorophore MR121 (for cathepsin D the 10 amino acid peptide […]-MR121 was used; for cathepsin E, MR121-[…] was used). In absence of protease activity, the substrates remain intact and the MR121 fluorescence is reduced by the high local Trp-concentration. If the substrates are cleaved by the enzymes the MR121 fluorescence is recovered.
The fluorescent substrate cathepsin D and cathepsin E kinetic assays were performed at room temperature in 384-well microtiter plates (black with clear flat bottom, non binding surface plates from Corning) in a final volume of 51 μl. The test compounds were serially diluted in DMSO (15 concentrations, ⅓ dilution steps) and 1 μl of diluted compounds were mixed for 10 min with 40 μl of cathepsin D (from human liver, Calbiochem) diluted in assay buffer (100 mM sodium acetate, 0.05% BSA, pH 5.5; final concentration: 200 nM) or with 40 μl of recombinant human cathepsin E (R&D Systems) diluted in assay buffer (100 mM sodium acetate, 0.05% BSA, pH 4.5; final concentration: 0.01 nM). After addition of 10 μl of the cathepsin D substrate […]-MR121 diluted in cathepsin D assay buffer (final concentration: 300 nM) or […] cathepsin E substrate MR121-[…] diluted in cathepsin E assay buffer (final concentration: 300 nM), the plates were strongly shaken for 2 minutes. The enzymatic reaction was followed in a plate: vision reader (Perkin Elmer) (excitation wavelength: 630 nm; emission: 695 nm) for at least 30 minutes in a kinetic measurement detecting an increase of MR121 fluorescence during the reaction time. The slope in the linear range of the kinetic was calculated and the IC50 of the test compounds were determined using a four parameter equation for curve fitting.

For the next data set, the target named is T2, CYP2D6 (Homo sapiens, UniProt P10635).
T2 construct: 0.2 mg/ml pooled human liver microsomes; from tissue; host or cells: pooled human liver microsomes
Kind of data set: CYP inhibition assay, CYP2D6. In kind it is in vitro ADME. To be noted: human liver microsomes, dextromethorphan O-demethylase; read-out: CYP IC50 2D6. As to the method: Inhibition of cytochromes P450 (CYPs) 2C9, 2D6 and 3A4 was assessed using human liver microsomes and CYP-selective substrate metabolism reactions. 50 μl incubations were made up containing (finally) 0.2 mg/ml pooled human liver microsomes, 5 μM substrate (diclofenac for CYP2C9 [4′ hydroxylase], dextromethorphan for CYP2D6 [O-demethylase] or midazolam for CYP3A4 [1′ hydroxylase]), 0.25 μL DMSO containing test inhibitor and NADPH regenerating system. Test inhibitor concentrations of 50, 16.7, 5.6, 1.9, 0.6 and 0.2 μM were assessed in singlicate. Incubations were pre-warmed to 37° C. for 10 minutes before initiation by addition of NADPH regenerating system. Incubations were quenched after 5 minutes (20 minutes for dextromethorphan) by addition of 50 μl cold acetonitrile containing 20 ng/ml 4-OH-diclofenac-13C6, 20 ng/mL dextrorphan-D3 and 20 ng/mL 1-OH-midazolam-D4. Quenched incubates were stored at −20° C. for at least 1 hour before centrifugation (20,000×g, 20 minutes). Supernatants were removed and diluted 1:1 with water prior to analysis using a RapidFire sample injector system and API4000 mass spectrometer. Peak areas for substrate, metabolite and stable-labelled metabolite standard were determined using MS/MS. The peak area ratios between the metabolite generated by the enzymatic reaction and the internal standard were used in subsequent calculations. The percentage of (DMSO) control activity was calculated for each incubate and IC50 values estimated by non-linear regression. Sulfaphenazole, quinidine or ketoconazole were tested in each CYP2C9, CYP2D6 or CYP3A4 inhibition experiment, respectively, to ensure assay sensitivity and reproducibility. (Validated assays for human cytochrome P450 activities, R. L. Walsky and R. S. Obach, Drug Metabolism and Disposition 32: 647-660, 2004. and S. Fowler and H. Zhang, The AAPS Journal, Vol. 10, No. 2, 410-424, 2008.)

The nature of data set [2]: Detection of glutathione conjugates. It is filed as in vitro ADME, human. On the set-up: key: NF: in vitro no significant adduct formation relative to control. Particulars: in vitro, relative to control. An excerpt: Detection of Glutathione Conjugates
The assay conditions for the detection of glutathione conjugates follow the procedure described by C. M. Dieckhaus et al.

T2 sequence (P10635 whole entry): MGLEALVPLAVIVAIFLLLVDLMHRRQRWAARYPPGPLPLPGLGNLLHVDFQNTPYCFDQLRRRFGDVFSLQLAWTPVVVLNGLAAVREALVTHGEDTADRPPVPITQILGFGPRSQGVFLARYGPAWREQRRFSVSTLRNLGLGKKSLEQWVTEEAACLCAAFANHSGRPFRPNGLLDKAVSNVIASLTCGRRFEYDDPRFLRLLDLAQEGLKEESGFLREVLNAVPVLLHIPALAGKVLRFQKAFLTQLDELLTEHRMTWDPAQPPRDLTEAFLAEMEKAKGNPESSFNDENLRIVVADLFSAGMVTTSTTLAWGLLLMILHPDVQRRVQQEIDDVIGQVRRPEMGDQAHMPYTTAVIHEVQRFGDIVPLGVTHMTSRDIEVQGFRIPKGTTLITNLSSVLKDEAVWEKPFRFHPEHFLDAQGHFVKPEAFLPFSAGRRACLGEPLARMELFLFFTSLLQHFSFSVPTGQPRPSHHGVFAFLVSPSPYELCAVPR

As to `NC1=N[C@](CF)(c2cc(NC(=O)c3cnc(C(F)F)cn3)ccc2F)[C@H]2CC(F)(F)C[C@H]2O1` [Example 24, 5-Difluoromethyl-pyrazine-2-carboxylic acid [(S)-3-((1R,2R)-2-amino-6,6-difluoro-4-fluoromethyl-4,4a,5,6,7,7a-hexahydro-cyclopenta[e][1,3]oxazin-4-yl)-4-fluoro-phenyl]-amide], the IC50 was above 200 µM in data set [1] and above 10 µM on CYP2D6. Moreover, the “GSH human (glutathione adduct formation)” value in data set [2] is “NF”.

In the case of `COc1cnc(C(=O)Nc2ccc(F)c([C@@]3(C(F)F)N=C(N)O[C@@H]4CC(F)(F)C[C@@H]43)c2)cn1` [Example 42, 5-Methoxy-pyrazine-2-carboxylic acid [(S)-3-((1R,2R)-2-amino-4-difluoromethyl-6,6-difluoro-4,4a,5,6,7,7a-hexahydro-cyclopenta[e][1,3]oxazin-4-yl)-4-fluoro-phenyl]-amide], the IC50 in data set [1] is above 200 µM; at CYP2D6 it was above 10 µM. Besides, the “GSH human (glutathione adduct formation)” value in data set [2] is on record as “NF”.

Take `N#Cc1ccc(C(=O)Nc2ccc(F)c([C@@]3(C(F)F)N=C(N)O[C@@H]4CC(F)(F)C[C@@H]43)c2)nc1` [Example 36, 5-Cyano-pyridine-2-carboxylic acid [(S)-3-((1R,2R)-2-amino-4-difluoromethyl-6,6-difluoro-4,4a,5,6,7,7a-hexahydro-cyclopenta[e][1,3]oxazin-4-yl)-4-fluoro-phenyl]-amide]: the IC50 was above 200 µM in data set [1] and above 10 µM on CYP2D6. Further, in data set [2], the “GSH human (glutathione adduct formation)” value is “NF”.

Regarding `NC1=N[C@](CF)(c2cc(NC(=O)c3ccc(F)cn3)ccc2F)[C@H]2CC(F)(F)C[C@H]2O1` [Example 7, 5-Fluoro-pyridine-2-carboxylic acid [(S)-3-((1R,2R)-2-amino-6,6-difluoro-4-fluoromethyl-4,4a,5,6,7,7a-hexahydro-cyclopenta[e][1,3]oxazin-4-yl)-4-fluoro-phenyl]-amide], the IC50 in data set [1] was 149 µM; at CYP2D6, above 10 µM. Moreover, the “GSH human (glutathione adduct formation)” value in data set [2] is given as “NF”.

Regarding `N#Cc1ccc(C(=O)Nc2ccc(F)c([C@@]3(CF)N=C(N)O[C@@H]4CC(F)(F)C[C@@H]43)c2)nc1` [Example 3, 5-Cyano-pyridine-2-carboxylic acid [(S)-3-((1R,2R)-2-amino-6,6-difluoro-4-fluoromethyl-4,4a,5,6,7,7a-hexahydro-cyclopenta[e][1,3]oxazin-4-yl)-4-fluoro-phenyl]-amide], the IC50 in data set [1] is above 200 µM; at CYP2D6, above 10 µM. Further, in data set [2], the “GSH human (glutathione adduct formation)” value is reported as “NF”.
